Converted amounts (≈) assume the structure as drawn. Where two headings read alike, the source gives them in different places.
What was measured:
HIV-1 strain NL4.3 = experiment: Anti-HIV-1 assay in MT-4 cells (p24 Ag ELISA, Example 3); assay type: cell-based; settings: MT-4 cells
Outline: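 MT-4 cells infected with HIV-1 NL4.3 in presence of five-fold compound dilutions, incubated 3–5 days until strong viral CPE in untreated infected cells. Supernatant p24 core antigen measured by ELISA; IC50 is concentration giving 50% reduction in p24.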

HHV-7 (KHR strain) [1] = experiment: Anti-HHV-7 assay in SupT1 cells (antigen expression, flow cytometry, Example 3); assay type: cell-based; settings: SupT1 cells
Outline: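 SupT1 cells pre-incubated 30 min at room temperature with five-fold compound dilutions, then infected with HHV-7. Every 2–3 days from day 4, half the medium and cells were replaced with compound-free medium. Once microscopic CPE appeared, HHV-7 antigen expression was measured by flow cytometry.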

CD4 [2] = target: T1, CD4 (Homo sapiens, UniProt P01730); experiment: CD4 down-modulation, flow cytometry with FITC-conjugated anti-CD4 (SK3) mAb, MT-4 cells; assay type: cell-based; design: To study the effect of the CADA derivatives on surface CD4 antigen expression, MT-4 and SupT1 cells were incubated; endogenous in cells; host or cells: MT-4, SupT1, PBMC
CD4 [3] = target: T1, CD4; experiment: CD4 down-modulation, flow cytometry with FITC-conjugated anti-CD4 (SK3) mAb, SupT1 cells; assay type: cell-based; design: To study the effect of the CADA derivatives on surface CD4 antigen expression, MT-4 and SupT1 cells were incubated; endogenous in cells; host or cells: MT-4, SupT1, PBMC; settings: day 4
Outline: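 MT-4 and SupT1 cells were exposed at 37 °C to 5-fold compound dilutions (50–0.08 μg/ml). On day 3 (MT-4) or day 4 (SupT1) they were stained with FITC anti-CD4 (SK3) for 30 min at 4 °C and analysed by flow cytometry. IC50 was derived from MFI as % of untreated control, after isotype subtraction.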

MT-4 cells = experiment: Cytotoxicity assay (trypan blue exclusion, propidium iodide); assay type: cell-based, human
Description: (§1) Cytotoxicity Assay. Cellular toxicity of the compounds was measured by trypan blue exclusion and also by Propidium Iodide by flow cytometry after 3 or 4 days of incubation, in parallel with the CD4 antigen expression. The CC50 value of each CADA analog is the concentration (in μg/ml) required to reduce the viability of the cells by 50%.

SupT1 cells = experiment: as above; assay type: cell-based, human
Description: as §1

CD4 [4] = target: T1, CD4; experiment: Cell surface CD4 expression by flow cytometry (anti-CD4 mAb Leu3a-PE); assay type: cell-based; design: To study the effect of the CADA derivatives on surface CD4 antigen expression, MT-4 and SupT1 cells were incubated; endogenous in cells; host or cells: MT-4, SupT1, PBMC; settings: SupT1 cells, ATA 24 μM, CADA 16 μM, PMA 8 nM (FIG. 4)
Outline: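 MT-4, SupT1 cells and PBMCs were exposed at 37° C to CADA hydrochloride (3.2 or 16 μM) for 20 min to 4 days, with ATA (24 μM) and PMA (8 nM) as comparators in SupT1. Cells were stained with PE-anti-CD4 (Leu3a) for 20 min at 4° C and fixed in 1% formaldehyde. Read-out was flow cytometry as % positive cells and MFI.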

[5] = Cytotoxic concentration (Example 2); assay type: cell-based; settings: human, MT-4 cells; read-out: CC50
[6] = Cytotoxic concentration (Example 2); assay type: cell-based; settings: human, SupT1 cells; read-out: CC50
HHV-7 (KHR strain) [7] = experiment: Anti-HHV-7 assay (HHV-7 antigen expression, flow cytometry, day 12); assay type: cell-based; settings: SUP-T1, read-out: IC50 for HHV-7 infection
Description: The antiviral activity of CADA against HIV-1 and RHV-7 was investigated. PBMCs and […] cell-depleted PBMCs (removed with CD8 magnetic beads; Dynal AS, Oslo, Norway), previously activated with purified PHA (2 μg/ml) and rhIL-2 (1 ng/ml) for 3 days, were pelleted and exposed to HIV-1 (1 ng p24 Ag per 10^6 cells) for 2 hours at 370C. Then the cells were washed three times with warm medium and cultured in complete medium containing rhIL-2 (1 ng/ml) in the presence or absence of different concentrations of CADA hydrochloride. The anti-HIV-1 assays were also performed in MT-4 and SupT1 cells. CADA hydrochloride was diluted in the plates, then the MT-4 cells or SupT1 cells were added and finally the T-tropic HIV-1 strains. The supernatant was collected at day 5 for MT-4 cells, day 8 for SupT1 cells and day 12 for PBMCs, and stored at −20° C. and analyzed for HIV-1 core antigen by p24 Ag ELISA (NEN, Brussels, Belgium). The SupT1 cells were refreshed on day 4, and half of the medium and cells were replaced and fresh CADA-free medium was added. For the PBMCs, fresh culture medium was added at day 6 containing rhIL-2 (but no CADA). For the anti-HHV-7 assays in PBMCs, CADA hydrochloride was diluted in a plate, 2×10˜cells were added and then HHV-7 (KHR strain) was added in complete medium containing rhIL-2 (1 ng/ml). Fresh culture medium was added again at day 6 containing rhIL-2 (but no CADA). The same infection protocol was used for the SupT1 cells, but without rhIL-2. The SupT1 cells were refreshed on day 4 and day 8, half of the medium and the cells were replaced, and fresh medium without CADA was added. The HHV-7 antigen expression was monitored (at day 12) with a specific mAb to HHV-7 (RK-4) (Advanced Biotechnologies, Columbia, Md.) by flow cytometry, as described previously (Thang, Y., et al., Antiviral Res. 43:23-35 (1999)).

HIV-1 and HHV-7 = experiment: Selectivity index (ratio of CC50 to IC50), antiviral assays; assay type: cell-based; settings: over the viruses and cell types tested
Description: The IC50 of CADA against the CCR5-using (R5) HIV-1 strain BaL was 0.8 μM in PBMCs. […] The IC50 of PMA for the HIV-1 strains (IIIB, RF and NL4.3) in MT-4 cells was about 0.3 nM, and the IC50 for HHV-7 infection in SupT1 cells was 0.6 nM.

SMILES | IC50 HIV-1 (NL4.3), p24 Ag ELISA (HIV-1 strain NL4.3) [µg/mL] | IC50 HHV-7 (50% reduction of HHV-7 antigen expression) (HHV-7 (KHR strain) [1]) [µg/mL] | IC50 CD4 (50% inhibition of extracellular CD4 expression) (CD4 [2]; MT-4 cells, day 3) [µg/mL] | CD4 down-modulating activity, fold less active than CADA (CD4 [2]; compared to CADA, MT-4 cells (stated for some compounds)) [fold] | IC50 CD4 (50% inhibition of extracellular CD4 expression) (CD4 [3]) [µg/mL] | CC50 (50% cytotoxic concentration) (MT-4 cells) [µg/mL] | CC50 (50% cytotoxic concentration) (SupT1 cells) [µg/mL] | percentage of cell surface CD4 expression (CD4 [4]; 20 minutes) | percentage of cell surface CD4 expression (CD4 [4]; 4 hours) | percentage of cell surface CD4 expression (CD4 [4]; 1 day) | percentage of cell surface CD4 expression (CD4 [4]; 4 days) [%] | CC50 [5] [nM] | CC50 [6] [nM] | IC50 (HHV-7 (KHR strain) [7]) [nM] | selectivity index (SI), ratio of CC50 to IC50 (HIV-1 and HHV-7)
C=C1CN(S(=O)(=O)c2ccc(C)cc2)CCCN(Cc2cccnc2)CCCN(S(=O)(=O)c2ccc(C)cc2)C1 [AS-N6P6] | 2.38 (≈ 4.08 µM) | 1.50 | 3.22 | 7 | 4.27 | 21.4 (≈ 36.7 µM) | >50 | – | – | – | – | – | – | – | –
CCCCCCCCCCCCCC(=O)O[C@@H]1[C@@H](C)[C@@]2(O)[C@@H](C=C(CO)C[C@]3(O)C(=O)C(C)=C[C@@H]23)[C@@H]2C(C)(C)[C@]12OC(C)=O [PMA, Phorbol myristate acetate, reference compound] | – | – | – | – | – | – | – | only a slight CD4 decrease | dramatically decreased | almost undetectable | 81.6 | 2.1 | 1.5 | 0.6 | 2-7

Reference: patent US20040220164A1, “Triaza compound immunoregulatory agents” (priority 2001, published 2004)
